Laboratory results from patent US20020061927A1, “Insulin receptor activators for the treatment of metabolic disorders induced by treatment with HIV protease inhibitors” (priority 2000, published 2002).

Assays:
[1] = system: 3T3 L1 adipocytes; assay: Reversal of HIV protease inhibitor block of glucose transport in cells (14C-2-deoxy-D-glucose uptake); format: cell-based; conditions: for effect of HIV protease inhibitor drug on glucose transport activity: 3T3 L1 adipocytes; for glucose transport: 3T3 L1 cells; for effect on glucose transport activity inhibited by HIV protease inhibitor drugs: 3T3 L1 adipocytes in presence of Ritonavir, Indinavir or Amprenavir
Procedure: Stimulation of the insulin receptor leads to the transport of glucose from the blood into cells, thus modulating blood glucose levels. 3T3 L1 fibroblasts (ATCC) were grown in Dulbecco's modified Eagle's medium (DMEM) with 10% fetal bovine serum (FBS). The cells were plated at a density of 3×10^4 cells/ml in 96 well plates (0.1 ml/well). Two days after confluence was reached, the cells were treated for 3 days with 0.5 mM isobutylmethylxanthine (IBMX), 1 μM dexamethasone, and 1.7 μM insulin. The cells were then transferred to DMEM with 10% FBS and supplemented with 1.7 μM insulin for 2 more days. The cells were maintained in DMEM with 10% FBS for an additional 4 days. Finally, the cells were serum starved overnight in 0.1% bovine serum albumin (BSA) in DMEM.
The following day, the cells were pretreated with Indinavir, Ritonavir, or Amprenavir (at the concentrations indicated in the Tables below) in a buffer containing 150 mM NaCl, 1.7 mM KCl, 0.9 mM CaCl2 1.47 mM K2HPO4 (pH 7.4) and 0.01% BSA for 6 minutes followed by treatment with a compound described in this patent (56 μM compound 1; 20 μM compound 2) with or without 100 nM insulin for 30 minutes. Following incubation, the cells were labeled with ^14C-labeled 2-deoxy-D-glucose (0.5 μCi/ml) and incubation was continued for additional 30 minutes at 37° C. The cells were then washed 3 times with ice-cold PBS/20 mM glucose and lysed in 100 μl of lysis buffer (50 mM Hepes pH 7.6, 1% Triton X-100) for 30 minutes at room temperature. Radioactivity in the lysate was quantified by scintillation counting.
Once ^14C-2-deoxy-D-glucose is transported into the cells, it is not released. Glucose transport is, therefore, proportional to the amount of radioactivity in the lysate.

[2] = system: male CD rats; assay: Reversal of protease inhibitor-mediated insulin resistance in normal rats (oral glucose challenge); format: in vivo, rat; conditions: indinavir sulfate plus compound 1, oral
Procedure: Seven to nine week-old male CD rats (Charles River Laboratories, Hollister, Calif.) were used to study the effects of protease inhibitor and compound 1. Animals were kept in a 12 h/12 h light/dark cycle and were fasted overnight.
Indinavir sulfate was prepared in water, and compound 1 was prepared in PBS. Seven animals (average weight 300 grams) were used in each treatment condition. The animals were treated with vehicle or indinavir sulfate or indinavir sulfate plus compound 1 by oral administration. After 30 min, the animals were challenged with oral glucose load (2 g/kg), and blood glucose measurements were taken at 0 min, 10 min, 20 min, 30 min, 60 min, 90 min and 120 min by tail bleeding. Glucose measurements were made with a Glucometer and Glucose strips (Bayer).
The blood glucose levels are reported as the percentage of the values before challenge (“zero time” values).
Blood samples obtained from 0 min and 30 min time points were analysed for plasma insulin levels by ELISA (ALPCO Diagnostics, Windham, N.H.).

[3] = 5 μM Amprenavir pretreatment, 56 μM compound 1 / 20 μM compound 2
[4] = 5 μM Indinavir pretreatment, 56 μM compound 1 / 20 μM compound 2
[5] = 10 μM Amprenavir pretreatment, 56 μM compound 1 / 20 μM compound 2
[6] = 10 μM Indinavir pretreatment, 56 μM compound 1 / 20 μM compound 2
[7] = 20 μM Indinavir pretreatment, 56 μM compound 1 / 20 μM compound 2

Compound	effect of HIV protease inhibitor drug on glucose transport activity [1]	glucose transport [1, 3]	glucose transport [1, 4]	glucose transport ([1]; 5 μM Ritonavir pretreatment, 56 μM compound 1)	glucose transport [1, 5]	glucose transport [1, 6]	glucose transport ([1]; 20 μM Amprenavir pretreatment, 56 μM compound 1)	glucose transport [1, 7]	effect on glucose transport activity inhibited by HIV protease inhibitor drugs [1]	protease inhibitor-mediated insulin resistance [2]
CC(C)(C)NC(=O)[C@@H]1CN(Cc2cccnc2)CCN1C[C@@H](O)C[C@@H](Cc1ccccc1)C(=O)N[C@H]1c2ccccc2C[C@H]1O [Indinavir, reference compound]	inhibited									
O=C(Nc1ccc2c(O)cc(S(=O)(=O)Nc3ccc(Cl)c(S(=O)(=O)O)c3)cc2c1)Nc1ccc2c(O)cc(S(=O)(=O)Nc3ccc(Cl)c(S(=O)(=O)O)c3)cc2c1 [Compound 1]		1.83 fold over fold over 50 nM insulin	1.34 fold over fold over 50 nM insulin	1.32 foldover fold over 50 nM insulin	1.53 fold over fold over 50 nM insulin	1.16 fold over fold over 50 nM insulin	1.21 fold over fold over 50 nM insulin	1.12 fold over fold over 50 nM insulin	increase the glucose transport activity	Reversal of Protease Inhibitor-mediated Insulin Resistance
CC(C)CN(C[C@@H](O)[C@H](Cc1ccccc1)NC(=O)O[C@H]1CCOC1)S(=O)(=O)c1ccc(N)cc1 [Amprenavir, reference compound]	inhibited									
O=C(Nc1ccc2c(O)c(/N=N/c3ccc(/N=N/c4ccc(S(=O)(=O)O)cc4)cc3S(=O)(=O)O)c(S(=O)(=O)O)cc2c1)Nc1ccc2c(O)cc(S(=O)(=O)O)c(N=Nc3ccc(/N=N/c4ccc(S(=O)(=O)O)cc4)cc3S(=O)(=O)O)c2c1 [Compound 2]		1.25 foldover fold over 50 nM insulin	1.38 fold over fold over 50 nM insulin		1.07 foldover fold over 50 nM insulin	1.25 fold over fold over 50 nM insulin		1.02 fold over fold over 50 nM insulin	increase the glucose transport activity	
CC(C)c1nc(CN(C)C(=O)N[C@H](C(=O)N[C@@H](Cc2ccccc2)C[C@H](O)[C@H](Cc2ccccc2)NC(=O)OCc2cncs2)C(C)C)cs1 [Ritonavir, reference compound]	inhibited									
